Assay results published in the NIST ThermoML archive (doi:10.1007/s10765-005-5570-x).

Assay: xn = mol fraction of the nth substance listed
Conditions: Liquid

ClCBr [bromochloromethane] + CCOC(C)=O
Conditions	mass density [kg/m3]
288.15 K, 101.33 kPa, x1 = 0.0961	976.08
288.15 K, 101.33 kPa, x1 = 0.2333	1083.23
288.15 K, 101.33 kPa, x1 = 0.3083	1145.77
288.15 K, 101.33 kPa, x1 = 0.4015	1228.4
288.15 K, 101.33 kPa, x1 = 0.5004	1322.97
288.15 K, 101.33 kPa, x1 = 0.604	1430.45
288.15 K, 101.33 kPa, x1 = 0.7004	1538.94
288.15 K, 101.33 kPa, x1 = 0.7987	1659.96
288.15 K, 101.33 kPa, x1 = 0.9032	1800.66
288.15 K, 101.33 kPa, x1 = 1	1945.94
298.15 K, 101.33 kPa, x1 = 0.0961	963.62
298.15 K, 101.33 kPa, x1 = 0.2333	1069.74
298.15 K, 101.33 kPa, x1 = 0.3083	1131.77
298.15 K, 101.33 kPa, x1 = 0.4015	1213.84
298.15 K, 101.33 kPa, x1 = 0.5004	1308.02
298.15 K, 101.33 kPa, x1 = 0.604	1414.77
298.15 K, 101.33 kPa, x1 = 0.7004	1522.14
298.15 K, 101.33 kPa, x1 = 0.7987	1641.51
298.15 K, 101.33 kPa, x1 = 0.9032	1780.71
298.15 K, 101.33 kPa, x1 = 1	1924.88
298.15 K, 200 kPa, x1 = 0.2995	1118.5
298.15 K, 200 kPa, x1 = 0.5013	1299.53
298.15 K, 200 kPa, x1 = 0.6994	1514.36
298.15 K, 600 kPa, x1 = 0.2995	1119.03
298.15 K, 600 kPa, x1 = 0.5013	1300.17
298.15 K, 700 kPa, x1 = 0.6994	1515.04
298.15 K, 1100 kPa, x1 = 0.2995	1119.69
298.15 K, 1200 kPa, x1 = 0.5013	1300.97
298.15 K, 1200 kPa, x1 = 0.6994	1515.77
298.15 K, 1900 kPa, x1 = 0.6994	1516.63
298.15 K, 2000 kPa, x1 = 0.2995	1120.79
298.15 K, 2100 kPa, x1 = 0.5013	1301.96
298.15 K, 3000 kPa, x1 = 0.5013	1303.21
298.15 K, 3100 kPa, x1 = 0.2995	1121.97
298.15 K, 3100 kPa, x1 = 0.6994	1518.35
298.15 K, 4000 kPa, x1 = 0.2995	1123.04
298.15 K, 4000 kPa, x1 = 0.5013	1304.49
298.15 K, 4000 kPa, x1 = 0.6994	1519.64
298.15 K, 4900 kPa, x1 = 0.5013	1305.64
298.15 K, 5100 kPa, x1 = 0.2995	1124.32
298.15 K, 5100 kPa, x1 = 0.6994	1521.08
298.15 K, 5800 kPa, x1 = 0.6994	1522.03
298.15 K, 6000 kPa, x1 = 0.5013	1306.93
298.15 K, 6100 kPa, x1 = 0.2995	1125.53
298.15 K, 6800 kPa, x1 = 0.6994	1523.33
298.15 K, 6900 kPa, x1 = 0.2995	1126.38
298.15 K, 7000 kPa, x1 = 0.5013	1308.07
298.15 K, 7800 kPa, x1 = 0.5013	1309.22
298.15 K, 7900 kPa, x1 = 0.2995	1127.44
298.15 K, 7900 kPa, x1 = 0.6994	1524.7
298.15 K, 8700 kPa, x1 = 0.6994	1525.86
298.15 K, 8800 kPa, x1 = 0.5013	1310.44
298.15 K, 9000 kPa, x1 = 0.2995	1128.74
298.15 K, 9800 kPa, x1 = 0.5013	1311.74
298.15 K, 9800 kPa, x1 = 0.6994	1527.42
298.15 K, 9900 kPa, x1 = 0.2995	1129.86
298.15 K, 11800 kPa, x1 = 0.2995	1131.84
298.15 K, 11900 kPa, x1 = 0.6994	1530.29
298.15 K, 12100 kPa, x1 = 0.5013	1314.57
298.15 K, 13800 kPa, x1 = 0.2995	1134.16
298.15 K, 13800 kPa, x1 = 0.6994	1532.98
298.15 K, 13900 kPa, x1 = 0.5013	1316.83
298.15 K, 15700 kPa, x1 = 0.2995	1136.18
298.15 K, 15900 kPa, x1 = 0.5013	1319.23
298.15 K, 15900 kPa, x1 = 0.6994	1535.7
298.15 K, 17600 kPa, x1 = 0.5013	1321.38
298.15 K, 17700 kPa, x1 = 0.2995	1138.39
298.15 K, 17700 kPa, x1 = 0.6994	1538.2
298.15 K, 19200 kPa, x1 = 0.6994	1540.32
298.15 K, 19400 kPa, x1 = 0.6994	1540.59
298.15 K, 19900 kPa, x1 = 0.5013	1324.19
298.15 K, 20000 kPa, x1 = 0.2995	1140.92
308.15 K, 101.33 kPa, x1 = 0.0961	949.99
308.15 K, 101.33 kPa, x1 = 0.2333	1054.79
308.15 K, 101.33 kPa, x1 = 0.3083	1116.41
308.15 K, 101.33 kPa, x1 = 0.4015	1197.33
308.15 K, 101.33 kPa, x1 = 0.5004	1290.38
308.15 K, 101.33 kPa, x1 = 0.604	1396.09
308.15 K, 101.33 kPa, x1 = 0.7004	1502.46
308.15 K, 101.33 kPa, x1 = 0.7987	1620.66
308.15 K, 101.33 kPa, x1 = 0.9032	1758.33
308.15 K, 101.33 kPa, x1 = 1	1900.86
